Reference: patent US20240398828A1, “HETERO-ATOM CONTAINING COMPOUNDS AND USES THEREOF” (Kumquat Biosciences Inc., priority 2021, published 2024)

Tests used:
[1] = target: T1, PTPN2 (i.e., TC-PTP) (Homo sapiens, UniProt P17706); assay: Phosphatase activity assay (DiFMUP substrate), PTPN2; assay type: biochemical; details: compounds binned ≤1 uM or >1 uM
T1 sequence (P17706 1-415): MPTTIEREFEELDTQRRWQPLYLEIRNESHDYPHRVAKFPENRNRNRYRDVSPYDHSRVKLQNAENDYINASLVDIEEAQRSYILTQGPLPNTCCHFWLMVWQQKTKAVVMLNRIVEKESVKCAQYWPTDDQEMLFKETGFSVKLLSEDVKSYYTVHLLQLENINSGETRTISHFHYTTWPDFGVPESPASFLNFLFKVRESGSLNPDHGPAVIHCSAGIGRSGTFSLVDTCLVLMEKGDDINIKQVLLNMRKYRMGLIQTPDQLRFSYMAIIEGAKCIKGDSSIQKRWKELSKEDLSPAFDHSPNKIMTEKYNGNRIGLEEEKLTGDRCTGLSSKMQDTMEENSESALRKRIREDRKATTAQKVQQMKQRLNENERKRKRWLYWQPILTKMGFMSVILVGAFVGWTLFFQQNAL
How it was run: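 Continuous fluorogenic readout of DiFMUP dephosphorylation at room temperature, substrate set at Km for each phosphatase (about 45 μM in the PTPN2 assay). The buffer contains 1 mM DTT and 0.001% Tween-20, pH 7.5.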

[2] = target: T2, PTPN1 (i.e., PTP1B) (Homo sapiens, UniProt P18031); assay: Phosphatase activity assay (DiFMUP substrate), PTP1B; assay type: biochemical; details: compounds binned ≤1 uM or >1 uM
T2 sequence (P18031 1-435): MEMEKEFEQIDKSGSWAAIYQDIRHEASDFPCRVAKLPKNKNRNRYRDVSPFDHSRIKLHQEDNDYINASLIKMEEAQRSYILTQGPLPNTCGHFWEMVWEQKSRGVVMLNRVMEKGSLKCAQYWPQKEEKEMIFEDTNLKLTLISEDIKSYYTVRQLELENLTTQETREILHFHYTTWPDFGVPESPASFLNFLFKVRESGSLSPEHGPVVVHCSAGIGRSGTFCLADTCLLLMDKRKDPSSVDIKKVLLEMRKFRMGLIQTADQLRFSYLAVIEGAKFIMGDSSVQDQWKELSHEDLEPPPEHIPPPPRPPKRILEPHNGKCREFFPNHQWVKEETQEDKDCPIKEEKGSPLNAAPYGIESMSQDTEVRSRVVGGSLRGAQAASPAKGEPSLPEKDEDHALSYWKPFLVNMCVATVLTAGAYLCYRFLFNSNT
How it was run: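 Enzyme (e.g. PTPN2 0.025 ng/ul) mixed about 2 min with compound at 10 serial concentrations in 50 mM HEPES pH 7.5, 150 mM NaCl, 0.5 mM EDTA, 1 mM DTT, 0.001% Tween-20 at room temperature. DiFMUP added at each enzyme's Km (about 45 μM for PTPN2). DiFMU fluorescence (ex 360/em 450 nm) followed 15-30 min; IC50 from 4-parameter fit of rates.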

`N#CC1(c2cc(-c3ccc(O)c(N4CC(=O)NS4(=O)=O)c3F)[nH]n2)CC1` [Compound 441, 1-(5-(3-(1,1-dioxido-4-oxo-1,2,5-thiadiazolidin-2-yl)-2-fluoro-4-hydroxyphenyl)-1H-pyrazol-3-yl)cyclopropane-1-carbonitrile] was tested, and the IC50 [1] was ≤ 1 µM and the IC50 [2] was ≤ 1 µM.
In the case of `O=C1CN(c2c(O)ccc(-c3c(F)ccc4[nH]ncc34)c2F)S(=O)(=O)N1` [Compound 152, 5-(2-fluoro-3-(5-fluoro-1H-indazol-4-yl)-6-hydroxyphenyl)-1,2,5-thiadiazolidin-3-one 1,1-dioxide], the IC50 [1] is reported as ≤ 1 µM and the IC50 [2] is reported as ≤ 1 µM.
For `Cc1cc(-c2ccc(O)c(N3CC(=O)NS3(=O)=O)c2F)nn1C1CC1` [Compound 340, 5-(3-(1-cyclopropyl-5-methyl-1H-pyrazol-3-yl)-2-fluoro-6-hydroxyphenyl)-1,2,5-thiadiazolidin-3-one 1,1-dioxide], the IC50 [1] was ≤ 1 µM and the IC50 [2] was ≤ 1 µM.
In the case of `O=C1CN(c2c(O)ccc(-c3cnn(CC4CCOCC4)c3)c2F)S(=O)(=O)N1` [Compound 171, 5-(2-fluoro-6-hydroxy-3-(1-((tetrahydro-2H-pyran-4-yl)methyl)-1H-pyrazol-4-yl)phenyl)-1,2,5-thiadiazolidin-3-one 1,1-dioxide], the IC50 [1] is reported as ≤ 1 µM and the IC50 [2] is reported as ≤ 1 µM.
In the case of `Cc1ccccc1-n1cnc(-c2ccc(O)c(N3CC(=O)NS3(=O)=O)c2F)c1` [Compound 418, 5-(2-fluoro-6-hydroxy-3-(1-(o-tolyl)-1H-imidazol-4-yl)phenyl)-1,2,5-thiadiazolidin-3-one 1,1-dioxide], the IC50 [1] is reported as ≤ 1 µM and the IC50 [2] is reported as ≤ 1 µM.
`COc1ccc(-c2ccc(O)c(N3CC(=O)NS3(=O)=O)c2F)cn1` [Compound 213, 5-(2-fluoro-6-hydroxy-3-(6-methoxypyridin-3-yl)phenyl)-1,2,5-thiadiazolidin-3-one 1,1-dioxide] was tested, and the IC50 [1] was ≤ 1 µM and the IC50 [2] was ≤ 1 µM.
`Cc1nn(C)cc1-c1ccc(O)c(N2CC(=O)NS2(=O)=O)c1F` [Compound 142, 5-(3-(1,3-dimethyl-1H-pyrazol-4-yl)-2-fluoro-6-hydroxyphenyl)-1,2,5-thiadiazolidin-3-one 1,1-dioxide] was tested, and the IC50 [1] was ≤ 1 µM and the IC50 [2] was ≤ 1 µM.
With `O=C1CN(c2c(O)ccc(-c3cn(-c4ccc(F)c(F)c4)cn3)c2F)S(=O)(=O)N1` [Compound 289, 5-(3-(1-(3,4-difluorophenyl)-1H-imidazol-4-yl)-2-fluoro-6-hydroxyphenyl)-1,2,5-thiadiazolidin-3-one 1,1-dioxide] the IC50 [1] was ≤ 1 µM and the IC50 [2] was ≤ 1 µM.
With `Cc1cc(-c2ccc(O)c(N3CC(=O)NS3(=O)=O)c2F)nn1C` [Compound 454, 5-(3-(1,5-dimethyl-1H-pyrazol-3-yl)-2-fluoro-6-hydroxyphenyl)-1,2,5-thiadiazolidin-3-one 1,1-dioxide] the IC50 [1] was ≤ 1 µM and the IC50 [2] was ≤ 1 µM.
With `O=C1CN(c2c(O)ccc(-c3cc(C#Cc4cccnc4)n[nH]3)c2F)S(=O)(=O)N1` [Compound 434, 5-(2-fluoro-6-hydroxy-3-(3-(pyridin-3-ylethynyl)-1H-pyrazol-5-yl)phenyl)-1,2,5-thiadiazolidin-3-one 1,1-dioxide] the IC50 [1] was ≤ 1 µM and the IC50 [2] was ≤ 1 µM.
In the case of `Cn1cc(-c2ccc(O)c(N3CC(=O)NS3(=O)=O)c2F)nc1C1CC1(F)F` (stereo not drawn) [Compound 472, 5-(3-(2-(2,2-difluorocyclopropyl)-1-methyl-1H-imidazol-4-yl)-2-fluoro-6-hydroxyphenyl)-1,2,5-thiadiazolidin-3-one 1,1-dioxide], the IC50 [1] is reported as > 1 µM and the IC50 [2] is reported as ≤ 1 µM.
In the case of `N#Cc1cc(F)cc(-n2cnc(-c3ccc(O)c(N4CC(=O)NS4(=O)=O)c3F)c2)c1` [Compound 433, 3-(4-(3-(1,1-dioxido-4-oxo-1,2,5-thiadiazolidin-2-yl)-2-fluoro-4-hydroxyphenyl)-1H-imidazol-1-yl)-5-fluorobenzonitrile], the IC50 [1] is reported as ≤ 1 µM and the IC50 [2] is reported as ≤ 1 µM.
In the case of `N#Cc1ccc(Cn2cc(-c3ccc(O)c(N4CC(=O)NS4(=O)=O)c3F)cn2)cc1F` [Compound 157, 4-((4-(3-(1,1-dioxido-4-oxo-1,2,5-thiadiazolidin-2-yl)-2-fluoro-4-hydroxyphenyl)-1H-pyrazol-1-yl)methyl)-2-fluorobenzonitrile], the IC50 [1] is reported as ≤ 1 µM and the IC50 [2] is reported as ≤ 1 µM.
`Cn1cc(-c2ccc(O)c(N3CC(=O)NS3(=O)=O)c2F)cn1` [Compound 227, 5-(2-fluoro-6-hydroxy-3-(1-methyl-1H-pyrazol-4-yl)phenyl)-1,2,5-thiadiazolidin-3-one 1,1-dioxide] was tested, and the IC50 [1] was ≤ 1 µM and the IC50 [2] was ≤ 1 µM.
In the case of `O=C1CN(c2c(O)ccc(-c3c[nH]nc3F)c2F)S(=O)(=O)N1` [Compound 507, 5-(2-fluoro-3-(3-fluoro-1H-pyrazol-4-yl)-6-hydroxyphenyl)-1,2,5-thiadiazolidin-3-one 1,1-dioxide], the IC50 [1] is reported as ≤ 1 µM and the IC50 [2] is reported as ≤ 1 µM.
In the case of `CCC1C=C(c2ccc(O)c(N3CC(=O)NS3(=O)=O)c2F)CN1` (stereo not drawn) [Compound 493, 5-(3-(5-ethyl-2,5-dihydro-1H-pyrrol-3-yl)-2-fluoro-6-hydroxyphenyl)-1,2,5-thiadiazolidin-3-one 1,1-dioxide], the IC50 [1] is reported as ≤ 1 µM and the IC50 [2] is reported as ≤ 1 µM.
`O=C1CN(c2c(O)ccc(-c3ccc(OCc4ccccc4)nc3)c2F)S(=O)(=O)N1` [Compound 143, 5-(3-(6-(benzyloxy)pyridin-3-yl)-2-fluoro-6-hydroxyphenyl)-1,2,5-thiadiazolidin-3-one 1,1-dioxide] was tested, and the IC50 [1] was ≤ 1 µM and the IC50 [2] was ≤ 1 µM.
With `CC(=O)N(C)C1CCC=C(c2ccc(O)c(N3CC(=O)NS3(=O)=O)c2F)C1` (stereo not drawn) [Compound 232, N-(3′-(1,1-dioxido-4-oxo-1,2,5-thiadiazolidin-2-yl)-2′-fluoro-4′-hydroxy-2,3,4,5-tetrahydro-[1,1′-biphenyl]-3-yl)-N-methylacetamide] the IC50 [1] was ≤ 1 µM and the IC50 [2] was ≤ 1 µM.
With `O=C1CN(c2c(O)ccc(-c3ccc(NS(=O)(=O)C4CC4)c(F)c3)c2F)S(=O)(=O)N1` [Compound 384, N-(3′-(1,1-dioxido-4-oxo-1,2,5-thiadiazolidin-2-yl)-2′,3-difluoro-4′-hydroxy-[1,1′-biphenyl]-4-yl)cyclopropanesulfonamide] the IC50 [1] was ≤ 1 µM and the IC50 [2] was ≤ 1 µM.
For `COc1ccc(Cn2cc(-c3ccc(O)c(N4CC(=O)NS4(=O)=O)c3F)cn2)cc1` [Compound 172, 5-(2-fluoro-6-hydroxy-3-(1-(4-methoxybenzyl)-1H-pyrazol-4-yl)phenyl)-1,2,5-thiadiazolidin-3-one 1,1-dioxide], the IC50 [1] was ≤ 1 µM and the IC50 [2] was ≤ 1 µM.
With `O=C1C=C(c2c(O)ccc(-c3cn(C4CC4)cn3)c2F)S(=O)(=O)N1` [Compound 244, 5-(3-(1-cyclopropyl-1H-imidazol-4-yl)-2-fluoro-6-hydroxyphenyl)isothiazol-3(2H)-one 1,1-dioxide] the IC50 [1] was ≤ 1 µM and the IC50 [2] was ≤ 1 µM.
`Cn1nc(-c2ccc(O)c(N3CC(=O)NS3(=O)=O)c2F)cc1C1(N)CC1` [Compound 345, 5-(3-(5-(1-aminocyclopropyl)-1-methyl-1H-pyrazol-3-yl)-2-fluoro-6-hydroxyphenyl)-1,2,5-thiadiazolidin-3-one 1,1-dioxide] was tested, and the IC50 [1] was ≤ 1 µM and the IC50 [2] was ≤ 1 µM.
In the case of `CC(C)CCn1ccc(-c2ccc(O)c(N3CC(=O)NS3(=O)=O)c2F)c1` [Compound 125, 5-(2-fluoro-6-hydroxy-3-(1-isopentyl-1H-pyrrol-3-yl)phenyl)-1,2,5-thiadiazolidin-3-one 1,1-dioxide], the IC50 [1] is reported as ≤ 1 µM and the IC50 [2] is reported as ≤ 1 µM.
With `O=C1CN(c2c(O)ccc(-n3cc(C4CC4)c(O)n3)c2F)S(=O)(=O)N1` [Compound 458, 5-(3-(4-cyclopropyl-3-hydroxy-1H-pyrazol-1-yl)-2-fluoro-6-hydroxyphenyl)-1,2,5-thiadiazolidin-3-one 1,1-dioxide] the IC50 [1] was ≤ 1 µM and the IC50 [2] was ≤ 1 µM.
For `COc1ccc(-n2cnc(-c3ccc(O)c(N4CC(=O)NS4(=O)=O)c3F)c2)cc1` [Compound 348, 5-(2-fluoro-6-hydroxy-3-(1-(4-methoxyphenyl)-1H-imidazol-4-yl)phenyl)-1,2,5-thiadiazolidin-3-one 1,1-dioxide], the IC50 [1] was ≤ 1 µM and the IC50 [2] was ≤ 1 µM.
In the case of `O=C1CN(c2c(O)ccc(-c3cn(C4CCCCC4)cn3)c2F)S(=O)(=O)N1` [Compound 459, 5-(3-(1-cyclohexyl-1H-imidazol-4-yl)-2-fluoro-6-hydroxyphenyl)-1,2,5-thiadiazolidin-3-one 1,1-dioxide], the IC50 [1] is reported as ≤ 1 µM and the IC50 [2] is reported as ≤ 1 µM.
With `O=C1CN(c2c(O)ccc(C3=CCN(CC(F)(F)F)CC3)c2F)S(=O)(=O)N1` [Compound 393, 5-(2-fluoro-6-hydroxy-3-(1-(2,2,2-trifluoroethyl)-1,2,3,6-tetrahydropyridin-4-yl)phenyl)-1,2,5-thiadiazolidin-3-one 1,1-dioxide] the IC50 [1] was ≤ 1 µM and the IC50 [2] was ≤ 1 µM.
